Results from the supplement of paper PMC10307832.

Legend:
Test in all cases: relative viability (nuclei count vs DMSO), 5 days (fraction); higher = more cells survive
[1] = compound: C(C(=O)C(=O)O)Br [Bromopyruvate] + O=C(c1cc(Cc2n[nH]c(=O)c3ccccc23)ccc1F)N1CCN(C(=O)C2CC2)CC1 [Olaparib] (partner 8 µM)
Procedure, shortened: (§1)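 Lung cancer cell lines in 1536-well plates were dosed by pin tool the day after seeding, either with one drug alone or with a fixed anchor-drug dose plus five library-drug doses (not always all listed) in √10 steps. After 5 days, cells were fixed and their nuclei stained in one step (final 0.05% Triton X-100, 1% formaldehyde, 1 ug/ml Hoechst), then counted on 4× images. Relative viability is the nuclei count in treated wells divided by that in vehicle wells. Values are medians of duplicate plates.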

[2] = compound: C(C(=O)C(=O)O)Br [Bromopyruvate] + Nc1nc2[nH]cc(CCc3ccc(C(=O)N[C@@H](CCC(=O)O)C(=O)O)cc3)c2c(=O)[nH]1 [Pemetrexed] (partner 0.2 µM)
Procedure, shortened: as §1

[3] = compound: CC(O)(CS(=O)(=O)c1ccc(F)cc1)C(=O)Nc1ccc(C#N)c(C(F)(F)F)c1 [Bicalutamide] + Cc1nc(Nc2ncc(C(=O)Nc3c(C)cccc3Cl)s2)cc(N2CCN(CCO)CC2)n1 [Dasatinib] (partner 0.075 µM)
Procedure, shortened: as §1

[4] = compound: C(C(=O)C(=O)O)Br [Bromopyruvate] + Cc1nc(NC(=O)N2CCC[C@H]2C(N)=O)sc1-c1ccnc(C(C)(C)C(F)(F)F)c1 [Alpelisib] (partner 2 µM)
Procedure, shortened: as §1

UMC-11
relative viability ([1]; first compound 1 µM): 0.366 | relative viability ([1]; first compound 3.162 µM): 0.356 | relative viability ([1]; first compound 10 µM): 0.374 | relative viability ([1]; first compound 31.62 µM): 0.35 | relative viability ([1]; first compound 100 µM): 0.393 | relative viability ([2]; first compound 1 µM): 0.801 | relative viability ([2]; first compound 3.162 µM): 0.841 | relative viability ([2]; first compound 10 µM): 0.777 | relative viability ([2]; first compound 31.62 µM): 0.708 | relative viability ([2]; first compound 100 µM): 0.736 | relative viability ([3]; first compound 0.08 µM): 0.523 | relative viability ([3]; first compound 0.253 µM): 0.399 | relative viability ([3]; first compound 0.8 µM): 0.576 | relative viability ([3]; first compound 2.53 µM): 0.431 | relative viability ([4]; first compound 1 µM): 1.12 | relative viability ([4]; first compound 3.162 µM): 1.01 | relative viability ([4]; first compound 10 µM): 0.983 | relative viability ([4]; first compound 31.62 µM): 0.997 | relative viability ([4]; first compound 100 µM): 1.01
